Data: BindingDB's records for PubMed 2894455 (University of Missouri, 1988)
“And” between values parts separate entries of the source, which are not always exact repeats. Equal values may be shown once.

These compounds were tested against T1, Alpha-2B adrenergic receptor (Didelphis virginiana, UniProt O77715).
T1 sequence (O77715 whole entry): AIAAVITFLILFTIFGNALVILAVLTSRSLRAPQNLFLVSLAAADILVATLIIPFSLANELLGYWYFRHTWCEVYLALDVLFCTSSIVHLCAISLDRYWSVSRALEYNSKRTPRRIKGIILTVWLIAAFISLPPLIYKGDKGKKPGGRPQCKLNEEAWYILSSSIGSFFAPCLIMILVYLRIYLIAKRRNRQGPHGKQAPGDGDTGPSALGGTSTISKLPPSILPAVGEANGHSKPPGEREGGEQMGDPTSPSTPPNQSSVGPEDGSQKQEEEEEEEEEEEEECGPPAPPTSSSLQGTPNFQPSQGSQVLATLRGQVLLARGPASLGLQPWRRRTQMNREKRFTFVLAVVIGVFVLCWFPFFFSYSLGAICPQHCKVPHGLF

Compound | Ki
Clc1cccc(Cl)c1N=C1NCCN1 [2-(2,6-dichloroanilino)-2-imidazoline] | 14 nM
COc1cc2nc(N3CCN(C(=O)c4ccco4)CC3)nc(N)c2cc1OC [[3H]-Minipress] | 7.4 nM and 7.6 nM
NCC(O)c1ccc(O)c(O)c1 (stereo not drawn) [Noradrenaline,(+)] | 122 nM
Brc1c(NC2=NCCN2)ccc2nccnc12 [UK 14,304] | 22 nM

Continued by falling Ki, values first:

Ki | Compound
143 nM | O=C(c1ccc(F)cc1)C1CCN(CCn2c(=O)[nH]c3ccccc3c2=O)CC1 [3-(2-{4-[(4-fluorophenyl)carbonyl]piperidin-1-yl}ethyl)-1,2,3,4-tetrahydroquinazoline-2,4-dione]
31 nM | CNCC(O)c1ccc(O)c(O)c1 (centres undefined) [EPINEPHRINE]
10 nM | Cc1cc(C(C)(C)C)c(O)c(C)c1CC1=NCCN1 [SMR000059324]
5.6 nM | Cc1ccc(N(CC2=NCCN2)c2cccc(O)c2)cc1 [SMR000059054]
0.27 nM | COc1cccc(OC)c1OCCNCC1Oc2ccccc2OC1c1ccccc1 (centres undefined) [NSC_185453]
